# Experimental data as given in ChEMBL document CHEMBL3526141, “Characterization of human liver enzymes involved in the biotransformation of boceprevir, a hepatitis C virus protease inhibitor” (Drug Metab Dispos, 2011).
# Assays:
# [1] = target: T1, Aldo-keto reductase family 1 member C2 (Homo sapiens, UniProt P52895); test: Drug metabolism in human recombinant AKR1C2 expressing HEK293 cells treated with 20 uM boceprevir assessed as 100 uM flufenamic acid-mediated inhibition of AKR1C2-mediated metabolite formation after 120 mins in presence of NADPH by LC-MS/MS/FSA method; format: ADME, cell-based; design: interact cpd dose 100 uM; settings: hek293, 2 h
# T1 sequence (P52895 whole entry): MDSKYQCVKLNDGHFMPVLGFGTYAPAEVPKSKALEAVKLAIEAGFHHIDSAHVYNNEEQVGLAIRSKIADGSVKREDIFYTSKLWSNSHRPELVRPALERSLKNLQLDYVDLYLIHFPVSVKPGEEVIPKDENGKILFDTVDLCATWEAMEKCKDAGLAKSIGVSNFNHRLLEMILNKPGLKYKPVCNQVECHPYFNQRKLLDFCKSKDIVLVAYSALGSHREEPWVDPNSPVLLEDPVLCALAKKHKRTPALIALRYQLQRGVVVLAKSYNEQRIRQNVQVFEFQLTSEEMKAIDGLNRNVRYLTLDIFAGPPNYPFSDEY
# Cytochrome P450 3A5 = Cytochrome P450 3A5 (Homo sapiens, UniProt P20815); test: Drug metabolism assessed as human CYP3A5-mediated compound formation from 20 uM [14C]boceprevir after 120 mins by LC-MS/FSA method relative to total [14C]boceprevir; format: ADME; settings: recombinant enzyme, 2 h
# [2] = target: T2, Aldo-keto reductase family 1 member C3 (Homo sapiens, UniProt P42330); test: Drug metabolism in human recombinant […] HEK293 cells treated with 20 uM boceprevir assessed as 1 mM ibuprofen-mediated inhibition of AKR1C3-mediated metabolite formation after 120 mins in presence of NADPH by LC-MS/MS/FSA method; format: ADME, cell-based; design: interact cpd dose 1 mM; settings: hek293, 2 h
# T2 sequence (P42330 whole entry): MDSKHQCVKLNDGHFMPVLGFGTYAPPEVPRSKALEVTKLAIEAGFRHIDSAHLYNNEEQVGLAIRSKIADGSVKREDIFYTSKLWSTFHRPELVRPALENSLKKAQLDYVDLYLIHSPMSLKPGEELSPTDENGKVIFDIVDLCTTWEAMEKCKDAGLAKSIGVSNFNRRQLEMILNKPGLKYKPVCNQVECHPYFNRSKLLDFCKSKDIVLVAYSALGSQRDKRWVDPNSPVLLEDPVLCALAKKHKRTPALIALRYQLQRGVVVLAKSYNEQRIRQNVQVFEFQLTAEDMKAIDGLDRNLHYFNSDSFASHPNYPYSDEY
# Cytochrome P450 2C19 = Cytochrome P450 2C19 (Homo sapiens, UniProt P33261); test: Drug metabolism assessed as human CYP2C19-mediated compound formation from 5 uM [14C]boceprevir after 120 mins by LC-MS/FSA method relative to total [14C]boceprevir; format: ADME; settings: recombinant enzyme, 2 h
# [3] = Drug metabolism in human liver mitochondria treated with 20 uM assessed as compound formation in presence of NADPH generating system by LC-MS/MS/FSA method; format: ADME
# [4] = Retention time of the compound by LC-MS/MS method; format: physicochemical
# Liver microsome = test: Drug metabolism in human liver microsomes treated with 20 uM [14C]boceprevir assessed as compound formation by LC-MS/FSA method relative to total [14C]boceprevir; format: ADME
# [5] = target: T2, Aldo-keto reductase family 1 member C3; test: Activity of human recombinant AKR1C3 expressed in HEK293 cells assessed as (1R,2S,5S)-N-((2S,3R)-4-amino-1-cyclobutyl-3-hydroxy-4-oxobutan-2-yl)-3-((S)-2-(3-tert-butylureido)-3,3-dimethylbutanoyl)-6,6-dimethyl-3-azabicyclo[3.1.0]hexane-2-carboxamide formation after 120 mins in presence of NADPH by LC-MS/MS/FSA method; format: ADME, cell-based; settings: hek293, 2 h
# [6] = (§1) Drug metabolism in human liver S9 fraction at 20 uM assessed as (1R,2S,5S)-N-((2S,3R)-4-amino-1-cyclobutyl-3-hydroxy-4-oxobutan-2-yl)-3-((S)-2-(3-tert-butylureido)-3,3-dimethylbutanoyl)-6,6-dimethyl-3-azabicyclo[3.1.0]hexane-2-carboxamide formation in presence of pargyline by LC-MS/MS/FSA method; format: ADME, subcellular; settings: s9, 20 µM
# Liver cytosol [7] = test: (§2) Drug metabolism in human liver cytosol at 20 uM assessed as (1R,2S,5S)-N-((2S,3R)-4-amino-1-cyclobutyl-3-hydroxy-4-oxobutan-2-yl)-3-((S)-2-(3-tert-butylureido)-3,3-dimethylbutanoyl)-6,6-dimethyl-3-azabicyclo[3.1.0]hexane-2-carboxamide formation in presence of BNPP by LC-MS/MS/FSA method; format: ADME
# Liver cytosol [8] = test: Drug metabolism in human liver cytosol at 20 uM assessed as (1R,2S,5S)-N-((2S,3R)-4-amino-1-cyclobutyl-3-hydroxy-4-oxobutan-2-yl)-3-((S)-2-(3-tert-butylureido)-3,3-dimethylbutanoyl)-6,6-dimethyl-3-azabicyclo[3.1.0]hexane-2-carboxamide formation in presence of pargyline by LC-MS/MS/FSA method; format: ADME
# Liver cytosol [9] = test: as §2, with “formation at 20 uM after 60 mins” for “formation”, “pre-incubation with ritonavir” for “BNPP”; format: ADME; settings: 1 h
# [10] = Drug metabolism in human liver S9 fraction at 20 uM assessed as (1R,2S,5S)-N-((2S,3R)-4-amino-1-cyclobutyl-3-hydroxy-4-oxobutan-2-yl)-3-((S)-2-(3-tert-butylureido)-3,3-dimethylbutanoyl)-6,6-dimethyl-3-azabicyclo[3.1.0]hexane-2-carboxamide formation in presence of allopurinol by LC-MS/MS/FSA method; format: ADME, subcellular; settings: s9, 20 µM
# Liver cytosol [11] = test: as §2, with “formation at 20 uM after 60 mins” for “formation”, “AKR inhibitor diflunisal” for “BNPP”; format: ADME; settings: 1 h
# Liver cytosol [12] = test: as §2, with “formation at 20 uM after 60 mins” for “formation”, “AKR inhibitor diazepam” for “BNPP”; format: ADME; settings: 1 h
# [13] = as §1, with “mefenamic acid” for “pargyline”; format: ADME, subcellular; settings: s9, 20 µM
# Liver cytosol [14] = test: (§3) Drug metabolism in human liver cytosol at 20 uM assessed as (1R,2S,5S)-N-((2R,3R)-4-amino-1-cyclobutyl-3-hydroxy-4-oxobutan-2-yl)-3-((S)-2-(3-tert-butylureido)-3,3-dimethylbutanoyl)-6,6-dimethyl-3-azabicyclo[3.1.0]hexane-2-carboxamide formation at 20 uM after 60 mins in presence of AKR inhibitor ibuprofen by LC-MS/MS/FSA method; format: ADME; settings: 1 h
# Liver cytosol [15] = test: Drug metabolism in human liver cytosol at 20 uM assessed as (1R,2S,5S)-N-((2R,3R)-4-amino-1-cyclobutyl-3-hydroxy-4-oxobutan-2-yl)-3-((S)-2-(3-tert-butylureido)-3,3-dimethylbutanoyl)-6,6-dimethyl-3-azabicyclo[3.1.0]hexane-2-carboxamide formation in presence of flufenamic acid by LC-MS/MS/FSA method; format: ADME
# Cytochrome P450 3A4 = Cytochrome P450 3A4 (Homo sapiens, UniProt P08684); test: Drug metabolism assessed as human CYP3A4-mediated compound formation from 5 uM [14C]boceprevir after 120 mins by LC-MS/FSA method relative to total [14C]boceprevir; format: ADME; settings: recombinant enzyme, 2 h, BLD = below limit of detection
# Liver cytosol [16] = test: as §3, with “diazepam” for “ibuprofen”; format: ADME; settings: 1 h
# Chain of Cytochrome P450 3A5 (P20815 whole entry): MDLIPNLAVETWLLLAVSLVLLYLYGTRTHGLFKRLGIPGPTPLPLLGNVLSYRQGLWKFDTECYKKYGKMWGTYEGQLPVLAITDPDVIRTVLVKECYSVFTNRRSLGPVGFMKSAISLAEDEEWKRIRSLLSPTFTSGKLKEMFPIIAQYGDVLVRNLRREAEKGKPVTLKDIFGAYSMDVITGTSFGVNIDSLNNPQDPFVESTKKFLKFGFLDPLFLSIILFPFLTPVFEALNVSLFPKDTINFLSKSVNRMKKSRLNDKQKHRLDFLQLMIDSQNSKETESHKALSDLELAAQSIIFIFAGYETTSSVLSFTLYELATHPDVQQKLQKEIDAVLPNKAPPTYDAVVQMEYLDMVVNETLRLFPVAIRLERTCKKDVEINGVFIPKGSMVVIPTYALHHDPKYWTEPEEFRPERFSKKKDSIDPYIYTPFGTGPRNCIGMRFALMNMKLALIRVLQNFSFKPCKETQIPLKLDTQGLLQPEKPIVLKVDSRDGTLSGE
# Chain of Cytochrome P450 2C19 (P33261 whole entry): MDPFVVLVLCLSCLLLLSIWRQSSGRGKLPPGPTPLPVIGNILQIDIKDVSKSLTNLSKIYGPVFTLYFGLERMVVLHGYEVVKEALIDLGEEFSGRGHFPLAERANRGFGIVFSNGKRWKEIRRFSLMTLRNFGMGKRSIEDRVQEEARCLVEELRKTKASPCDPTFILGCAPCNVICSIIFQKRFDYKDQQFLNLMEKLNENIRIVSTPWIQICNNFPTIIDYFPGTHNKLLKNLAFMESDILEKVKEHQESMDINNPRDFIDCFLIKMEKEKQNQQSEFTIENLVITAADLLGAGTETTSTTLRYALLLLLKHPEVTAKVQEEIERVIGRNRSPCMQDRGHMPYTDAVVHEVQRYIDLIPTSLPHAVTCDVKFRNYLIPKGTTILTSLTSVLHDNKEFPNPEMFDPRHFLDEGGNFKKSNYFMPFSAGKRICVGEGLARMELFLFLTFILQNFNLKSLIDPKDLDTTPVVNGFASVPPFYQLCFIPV
# Chain of Cytochrome P450 3A4 (P08684 whole entry): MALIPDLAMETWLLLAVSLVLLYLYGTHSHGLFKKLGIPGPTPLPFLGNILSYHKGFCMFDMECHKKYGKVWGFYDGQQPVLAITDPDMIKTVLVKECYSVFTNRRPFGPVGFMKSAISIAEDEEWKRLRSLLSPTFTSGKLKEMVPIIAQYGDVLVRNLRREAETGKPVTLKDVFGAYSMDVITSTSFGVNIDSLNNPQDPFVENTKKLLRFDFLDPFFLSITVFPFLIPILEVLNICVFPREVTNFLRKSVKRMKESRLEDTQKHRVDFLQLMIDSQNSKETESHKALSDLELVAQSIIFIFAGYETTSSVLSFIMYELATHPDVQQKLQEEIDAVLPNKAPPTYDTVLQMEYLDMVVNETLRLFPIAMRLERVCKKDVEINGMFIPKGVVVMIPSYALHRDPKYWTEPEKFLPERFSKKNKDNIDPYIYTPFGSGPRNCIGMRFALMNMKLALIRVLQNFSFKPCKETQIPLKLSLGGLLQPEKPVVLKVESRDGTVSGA
structure (smiles),measurement,setting,value
CC(C)(C)NC(=O)N[C@H](C(=O)N1C[C@H]2[C@@H]([C@H]1C(=O)N[C@@H](CC1CCC1)[C@@H](O)C(N)=O)C2(C)C)C(C)(C)C,inhibition (INH),[1],> 89%
same,Compound recovery,Cytochrome P450 3A5; BLD = below limit of detection,BLD
same,inhibition (INH),[2],55%
same,Compound recovery,Cytochrome P450 2C19,0.38%
same,Compound recovery,[3],7%
same,Retention_time,[4],40.1 min
same,Compound recovery,Liver microsome,0.6%
CC(C)(C)NC(=O)N[C@H](C(=O)N1C[C@H]2[C@@H]([C@H]1C(=O)NC(CC1CCC1)C(=O)C(N)=O)C2(C)C)C(C)(C)C (some centres undefined) [BOCEPREVIR],Km,[5],43.5 µM
same,Compound recovery,[6],metabolite_detected
same,Compound recovery,Liver cytosol [7],metabolite_not_detected
same,Compound recovery,Liver cytosol [8],metabolite_detected
same,Compound recovery,Liver cytosol [9],metabolite_detected
same,Compound recovery,[10],metabolite_detected
same,Compound recovery,Liver cytosol [11],metabolite_not_detected
same,Compound recovery,Liver cytosol [12],metabolite_not_detected
same,Compound recovery,[13],metabolite_not_detected
CC(C)(C)NC(=O)N[C@H](C(=O)N1C[C@H]2[C@@H]([C@H]1C(=O)N[C@H](CC1CCC1)C(=O)C(N)=O)C2(C)C)C(C)(C)C,Compound recovery,Cytochrome P450 3A5,19.67%
same,Compound recovery,Liver cytosol [14],metabolite_not_detected
same,Compound recovery,Cytochrome P450 2C19,30.71%
same,Compound recovery,Liver cytosol [15],metabolite_not_detected
same,Retention_time,[4],44.6 min
same,Compound recovery,Cytochrome P450 3A4,BLD
same,Compound recovery,Liver cytosol [16],metabolite_not_detected
same,Compound recovery,Liver microsome,17.42%
